Source: US12234239B2, “Crystalline forms of 2-(3-(4-(7H-pyrrolo[2,3-d]pyrimidin-4-yl)-1H-pyrazol-1-yl)-1-(cyclopropylsulfonyl)azetidin-3-yl)acetonitrile” (Elanco US, Inc., priority 2019, dated 2025)

Tested on: pruritus and skin lesions associated with allergic dermatitis in dogs
Test: Control of pruritus and skin lesions associated with allergic dermatitis in dogs (four-arm, blinded, randomized, placebo-controlled study)
Assay type: in vivo
Details: for Treatment success LSMean (response rate): oral tablets (Form II) once daily, success = 2 unit or more reduction from baseline on 10-unit owner-assessed pruritus VAS in at least 5 of first 7 treatment days, generalized linear mixed model
Method: Control of Pruritus and Skin Lesions Associated with Allergic Dermatitis in Dogs
This study evaluated 2-(3-(4-(7H-pyrrolo[2,3-d]pyrimidin-4-yl)-1H-pyrazol-1-yl)-1-(cyclopropylsulfonyl)azetidin-3-yl)acetonitrile for control of pruritus and skin lesions associated with allergic dermatitis in dogs.
Oral tablets were prepared containing Form II 2-(3-(4-(7H-pyrrolo[2,3-d]pyrimidin-4-yl)-1H-pyrazol-1-yl)-1-(cyclopropylsulfonyl)azetidin-3-yl)acetonitrile, as follows. Oral tablet blends were prepared containing crystal Form II 2-(3-(4-(7H-pyrrolo[2,3-d]pyrimidin-4-yl)-1H-pyrazol-1-yl)-1-(cyclopropylsulfonyl)azetidin-3-yl)acetonitrile, microcrystalline cellulose, pregelantinized starch, dicalcium phosphate dehydrate, oxide pigment, and magnesium stearate. The tablet blends were pressed giving tablet cores containing 2.4 mg, 3.6 mg, 5.4 mg, and 16 mg of crystal Form II 2-(3-(4-(7H-pyrrolo[2,3-d]pyrimidin-4-yl)-1H-pyrazol-1-yl)-1-(cyclopropylsulfonyl)azetidin-3-yl)acetonitrile, as well as a placebo core. The tablet cores were coated with a mixture containing water and Opadry 20A150011 Red, thereby giving the final oral tablets for the study.
A four-arm, blinded, randomized, placebo-controlled study was conducted to assess the efficacy of daily administration of 2-(3-(4-(7H-pyrrolo[2,3-d]pyrimidin-4-yl)-1H-pyrazol-1-yl)-1-(cyclopropylsulfonyl)azetidin-3-yl)acetonitrile for control of pruritus and skin lesions associated with allergic dermatitis in dogs. Subjects were randomized to one of the following treatment arms: API-containing Tablets, 0.25-0.40 mg/kg Body Weight; API-containing Tablets, 0.40-0.60 mg/kg Body Weight; API-containing Tablets, 0.60-0.80 mg/kg Body Weight; and Placebo Tablets, 0.0 mg/kg Body Weight.
Dogs enrolled in the study received once daily treatment for approximately 28 days. Baseline data (clinical history, concomitant therapies, body weight, physical examinations and assessments of pruritus and atopic dermatitis) were collected for each dog at enrollment (Day 0). Additional health assessments, physical examinations, body weight measurements, assessments of pruritus and atopic dermatitis, and collection of blood samples for hematology, serum chemistry and pharmacokinetic (PK) analysis occurred consistent with standard testing protocols.
The primary effectiveness variable was treatment success. A treatment success was defined as a 2 unit or more reduction from baseline on the 10-unit owner-assessed pruritus Visual-Analog Scale (VAS) in at least 70% of the first 7 treatment days (i.e., in at least 5 of the first 7 treatment days). Dogs withdrawn from the study within the first 7 days of treatment due to a perceived lack of effectiveness were considered treatment failures.
Random effects were fit for site and site treatment with a variance component covariance structure and a compound symmetry covariance structure was fit for individual dogs.

Question: With N#CCC1(n2cc(-c3ncnc4[nH]ccc34)cn2)CN(S(=O)(=O)C2CC2)C1 [2-(3-(4-(7H-pyrrolo[2,3-d]pyrimidin-4-yl)-1H-pyrazol-1-yl)-1-(cyclopropylsulfonyl)azetidin-3-yl)acetonitrile] as the compound, how does the “Treatment success LSMean (response rate)” value (0.25-0.40 mg/kg) read?
Answer: 0.4640

Question: What about the “Treatment success LSMean (response rate)” value (0.40-0.60 mg/kg) of the same compound?
Answer: 0.5590

Question: What about the “primary endpoint for treatment success” value (highest dose group 0.6-0.8 mg/kg once daily, minimum effective dose = success in at least 50% of the dogs) of the same compound?
Answer: achieved the primary endpoint for treatment success

Question: What about the “estimated marginal mean response rate compared with placebo rate” value (low dose (0.24-0.4 mg/kg) once daily) of the same compound?
Answer: higher than the placebo rate

Question: And the “estimated marginal mean response rate compared with placebo rate” value (medium dose (0.4-0.6 mg/kg) once daily)?
Answer: higher than the placebo rate

Question: And the “improvement in lesion scores” value (once daily 0.6-0.8 mg/kg, at day 28)?
Answer: significant improvement in lesion scores

Question: What about the improvements in pruritus (once daily dosing with 0.6-0.8 mg/kg, from first dose) of the same compound?
Answer: significant improvements in pruritus from first dose
